The results in this text go back to patent US8759367B2, “Compounds and methods for the prevention and treatment of cancer” (The Wistar Institute, priority 2010, dated 2014).

In the test the test system is GLI1-driven reporter activity mediated by exogenous SHH (Shh-light2 cells). Briefly: GLI-dependent firefly luciferase reporter assay in Shh-light2 cells treated with SHH. The settings on record: AKI0532 5, 2.5 or 1 μM in DMSO, alone (−SHH) or with SHH (+SHH), 2 days, FIG. 1. Format: cell-based. The method, then: Shh-light2 cells (3T3 clone stably transfected with a GLI-dependent firefly luciferase plasmid) were treated with carrier DMSO as control or AKI0532 (5, 2.5, or 1 μM in DMSO) either alone (−SHH) or in combination with SHH (+SHH) for 2 days.
For example, AKI0532 analogs shown in Table 1 can be subjected to a battery of tests that are commonly used to assess effects on SHH activity and to determine specificity. As exemplified herein for AKI0532, one screen involves examining the activation of the SHH pathway using the well-established cell line, SHH-Light2 cells. This cell line is a 3T3 clone that stably expresses a GLI-dependant firefly luciferase (Taipale, et al. (2000) Nature 406:1005-1009). […] Concentrations of each compound, ranging from 20 μM to 1 μM, can be tested. SHH-Light2 cells are seeded 24 hours prior to treatment. They were then cultured for an additional 48 hours in standard serum-containing media prior to analysis. GLI-binding site luciferase activities are measured using a commercially available luciferase reporter assay system. Treatment of SHH-Light2 cells with recombinant SHH (200 ng) results in strong induction of reporter activity. IC50 values are determined and are compared to that of AKI0532 in the same assay in order to assess which of the AKI0532 analogs have the highest levels of SHH inhibitory activity.
For orientation: Reporter assays use an easily measured gene product as a stand-in for the process of interest.

Each structure is given as a SMILES string.

With `C[C@]12CCC(c3ccc(O)cc3)=CC1=CC[C@@]21Cc2ncccc2O1` [AKI0532], the “GLI1-driven reporter activity mediated by exogenous SHH” value is “inhibits GLI1-driven reporter activity mediated by exogenous SHH”.
